Reference: the supplement of paper PMC11208160

Assay: recombinant UMI read abundance after kanamycin selection (control-corrected) (log10(CPM+1)); higher = more efficient recombination; extreme values may be limits of the assay; sequences stand for … in AGTGCAGAGAAAATCGGCCAGTTTTCTCTGCCTGCAGTCCGCATGCCGTGGGACCCCTTGGGTTCTAACCTGTTGCCTAGATTTATGCAGCGGACTGCCTTTCTCCCAAAGTGATAAACCGG…AGGTTGGTTTCACT; site = the 11-nt donor
Procedure, shortened: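 Under IPTG (0.07 mM) plus kanamycin, or without selection, Escherichia coli carrying a UMI-tagged donor and donor-binding-loop pair library and a target plasmid for the IS621 bridge recombinase were plated in two replicates. Recombinant UMIs were PCR-amplified across the donor–target junction and sequenced. Counts were converted to CPM, averaged over replicates, scaled by control-derived factors and reported as log10(CPM+1).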
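Further: IS621 bridge recombinase in Escherichia coli cells against a fixed T5 target plasmid.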

| Sequence | recombinant UMI read abundance (log10) |
| --- | --- |
| GTCCCTACATGGACCGGTTTTCCCGGTAATCCGTATTTGAG (site GTCCCTACTCT) | 0.168 |
| ACAGTATCATGGACCGGTTTTCCCGGTAATCCGTATTTGCA (site ACAGAATCTTG) | 2.53 |
| ATAAGGCCATGGACCGGTTTTCCCGGTAATCCGTATTTGGC (site ATAAGGCCTGG) | 0 |
| TTTTTGGCATGGACCGGTTTTCCCGGTAATCCGTATTTGTG (site TATTTGGCTCA) | 0.0105 |
| CGGAACCCATGGACCGGTTTTCCCGGTAATCCGTATTTGTT (site CGGAAGCCTAA) | 0.00321 |
| CTGTCTCCATGGACCGGTTTTCCCGGTAATCCGTATTTGAG (site CTGTCTCCTCT) | 0.0686 |
| CACTAGGCATGGACCGGTTTTCCCGGTAATCCGTATTTGGA (site CACTAGGCTTC) | 0.727 |
| CTCTCCACATGGACCGGTTTTCCCGGTAATCCGTATTTGCT (site CTCTACACTAG) | 0.902 |
| GTTCGAGCATGGACCGGTTTTCCCGGTAATCCGTATTTGCC (site GTTCGAGCTAG) | 0.379 |
| TAGAATACATGGACCGGTTTTCCCGGTAATCCGTATTTGGA (site TAGAATACTTC) | 1.99 |
| GAGCTCACATGGACCGGTTTTCCCGGTAATCCGTATTTGAA (site GAGCTCACTTT) | 1.43 |
| AAAATATCATGGACCGGTTTTCCCGGTAATCCGTATTTGCA (site AAAATATCTTG) | 2.21 |
| CTAGCTGCATGGACCGGTTTTCCCGGTAATCCGTATTTGTG (site TTAGCTGCTCA) | 0.0211 |
| CACCCTACATGGACCGGTTTTCCCGGTAATCCGTATTTGAG (site CACCCTACTCT) | 1.27 |
| CCCTAGTCATGGACCGGTTTTCCCGGTAATCCGTATTTGCC (site CCCTAGGCTGG) | 0 |
| CCTCACACATGGACCGGTTTTCCCGGTAATCCGTATTTGTA (site CCCCACACTTA) | 0.0116 |
| GTGAAAACATGGACCGGTTTTCCCGGTAATCCGTATTTGCT (site GGGAAAACTAG) | 0 |
| CTGCTTCCATGGACCGGTTTTCCCGGTAATCCGTATTTGCT (site CTGCTACCTAG) | 0 |
| AGCCTTTCATGGACCGGTTTTCCCGGTAATCCGTATTTGAC (site TGCCTTTCTGT) | 0 |
| GTAGTCGCATGGACCGGTTTTCCCGGTAATCCGTATTTGCG (site GTAGCCGCTCG) | 0.584 |
| ATGTGGGCATGGACCGGTTTTCCCGGTAATCCGTATTTGGC (site ATGTAGGCTGC) | 2.78 |
| CCCTTCTCATGGACCGGTTTTCCCGGTAATCCGTATTTGGG (site CCCTTCTCTGC) | 0 |
| TCCACCGCATGGACCGGTTTTCCCGGTAATCCGTATTTGCA (site TCCACCGCTCG) | 0 |
| ATAAGGACATGGACCGGTTTTCCCGGTAATCCGTATTTGAC (site ATAAGGACTGT) | 2.34 |
| AGCCGTACATGGACCGGTTTTCCCGGTAATCCGTATTTGCT (site AGCCGTACTAG) | 1.74 |

| Sequence | recombinant UMI read abundance (log10) |
| --- | --- |
| AAATATGCATGGACCGGTTTTCCCGGTAATCCGTATTTGGA (site AAGTATGCTTC) | 1.23 |
| GGCAATACATGGACCGGTTTTCCCGGTAATCCGTATTTGAA (site GGCAATTCTTT) | 0 |
| GCTCCTGCATGGACCGGTTTTCCCGGTAATCCGTATTTGCC (site GCTGCTGCTGG) | 0 |
| CGCCACCCATGGACCGGTTTTCCCGGTAATCCGTATTTGTT (site AGCCACCCTAA) | 0.00879 |
| TGGTTATCATGGACCGGTTTTCCCGGTAATCCGTATTTGTC (site TGGTTATCTGA) | 0.968 |
| ATCAAGACATGGACCGGTTTTCCCGGTAATCCGTATTTGCA (site ATCAAGACTTG) | 2.31 |
| GAGACGCCATGGACCGGTTTTCCCGGTAATCCGTATTTGAT (site GAGACGCCTAT) | 0.566 |
| TCTAATACATGGACCGGTTTTCCCGGTAATCCGTATTTGGC (site TCTAATACTGC) | 0 |
| CAGGTCGCATGGACCGGTTTTCCCGGTAATCCGTATTTGAT (site CAGGTCGCTAT) | 2.33 |
| GTTCCTACATGGACCGGTTTTCCCGGTAATCCGTATTTGCT (site GTTCCTACTAG) | 0.774 |
| CGACCGACATGGACCGGTTTTCCCGGTAATCCGTATTTGTT (site CGACCGACTAA) | 0.195 |
| ATTTCACCATGGACCGGTTTTCCCGGTAATCCGTATTTGGC (site ATTTCACCTGC) | 0 |
| CTCTACACATGGACCGGTTTTCCCGGTAATCCGTATTTGCC (site CTCTACACTTG) | 2.13 |
| TAGCGAACATGGACCGGTTTTCCCGGTAATCCGTATTTGGA (site TAGCGAACTTC) | 1.05 |
| CCTCTTTCATGGACCGGTTTTCCCGGTAATCCGTATTTGAG (site CCTCTTTCTCT) | 0.00323 |
| CTACTAACATGGACCGGTTTTCCCGGTAATCCGTATTTGGA (site CTACTACCTTC) | 0.0182 |
| AGCCTTTCATGGACCGGTTTTCCCGGTAATCCGTATTTGAC (site AGACTTTCTGT) | 0 |
| CTGCCTACATGGACCGGTTTTCCCGGTAATCCGTATTTGAG (site CTGCCTACTCT) | 1.03 |
| CGATGATCATGGACCGGTTTTCCCGGTAATCCGTATTTGAG (site CGATGATCTCT) | 3.16 |
| CTAATAACATGGACCGGTTTTCCCGGTAATCCGTATTTGGA (site CTAATAACTTC) | 2.05 |
| ACACGAACATGGACCGGTTTTCCCGGTAATCCGTATTTGTC (site ATACGAACTGA) | 0.0105 |
| AGGACTACATGGACCGGTTTTCCCGGTAATCCGTATTTGAC (site AGGACAACTGT) | 0.797 |
| TACTCCTCATGGACCGGTTTTCCCGGTAATCCGTATTTGCC (site AACTCCTCTGG) | 0.934 |
| AATCCTCCATGGACCGGTTTTCCCGGTAATCCGTATTTGAT (site AATCCTCCTAT) | 0.344 |
| GTTCGAGCATGGACCGGTTTTCCCGGTAATCCGTATTTGCA (site ATTCGAGCTTG) | 1.31 |

| Sequence | recombinant UMI read abundance (log10) |
| --- | --- |
| GGCGAACCATGGACCGGTTTTCCCGGTAATCCGTATTTGAC (site GGCGAACCTGT) | 0 |
| GCTTGCGCATGGACCGGTTTTCCCGGTAATCCGTATTTGAT (site GCTTGCACTAT) | 0.734 |
| AGGACTACATGGACCGGTTTTCCCGGTAATCCGTATTTGAC (site AGGACTACTGT) | 2.29 |
| CTCGTATCATGGACCGGTTTTCCCGGTAATCCGTATTTGAG (site CTCGTATCTCT) | 1.9 |
| TGTAGGACATGGACCGGTTTTCCCGGTAATCCGTATTTGAA (site TGTAGGACTTT) | 0.373 |
| GCAACCTCATGGACCGGTTTTCCCGGTAATCCGTATTTGCC (site GCAACCTCTGG) | 0.0535 |
| AATGTAACATGGACCGGTTTTCCCGGTAATCCGTATTTGCT (site AATATAACTAG) | 2.07 |
| ACATCTACATGGACCGGTTTTCCCGGTAATCCGTATTTGTC (site ACATCTACTAA) | 0.0236 |
| AGAATTTCATGGACCGGTTTTCCCGGTAATCCGTATTTGGG (site AGAATTTCTCC) | 0.964 |
| CTACCTACATGGACCGGTTTTCCCGGTAATCCGTATTTGAG (site CTCCCTACTCT) | 0.0123 |
| ATGGTCCCATGGACCGGTTTTCCCGGTAATCCGTATTTGAC (site ATGGTCCCTGT) | 1.87 |
| ATCAAGGCATGGACCGGTTTTCCCGGTAATCCGTATTTGTC (site ATCAAGGCTGA) | 1.53 |
| GGAGCCCCATGGACCGGTTTTCCCGGTAATCCGTATTTGCG (site GGAGCCCCTCG) | 0.00647 |
| AACAAACCATGGACCGGTTTTCCCGGTAATCCGTATTTGGT (site CACAAACCTAC) | 0 |
| CAATGCTCATGGACCGGTTTTCCCGGTAATCCGTATTTGCA (site CAATGCTCTTT) | 0.353 |
| TTAGAATCATGGACCGGTTTTCCCGGTAATCCGTATTTGAC (site TTAGAATCTGT) | 1.48 |
| GGGATGCCATGGACCGGTTTTCCCGGTAATCCGTATTTGGC (site GGGATGCCTGC) | 0 |
| TGGGAATCATGGACCGGTTTTCCCGGTAATCCGTATTTGCG (site TAGGAATCTCG) | 1.35 |
| ACCACGACATGGACCGGTTTTCCCGGTAATCCGTATTTGAC (site ACCACGACTGT) | 2.72 |
| CCCGTGACATGGACCGGTTTTCCCGGTAATCCGTATTTGAT (site CCCGTGACTAT) | 1.05 |
| CCTAAAACATGGACCGGTTTTCCCGGTAATCCGTATTTGGC (site CCTAAGACTGC) | 0 |
| ACAGTATCATGGACCGGTTTTCCCGGTAATCCGTATTTGCA (site GCAGTATCTTC) | 0.00944 |
| CTCTAGACATGGACCGGTTTTCCCGGTAATCCGTATTTGCT (site CTCTAGACTAG) | 0.576 |
| TCCCATTCATGGACCGGTTTTCCCGGTAATCCGTATTTGCC (site TCCTATTCTGG) | 0 |
| GACACGCCATGGACCGGTTTTCCCGGTAATCCGTATTTGTA (site GCCACGCCTTA) | 0.176 |
